Data set [1] relates to P. aeruginosa GN_043, PmxR. Conditions: polymyxin-resistant. In a few lines:
(§1)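 Mid-log cultures grown in Mueller Hinton broth at 37° C were tested by 2-fold broth microdilution at 5×10^5 CFU/mL final. Compounds were dissolved in water and tested over a final range of 32 to 0.015 μg/mL.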

In data set [2] the test system is K. pneumoniae GN_102 PmxR. To be noted: GN 102 PmxR. In a few lines: as §1
The subject of data set [3] is K. pneumoniae ATCC 13883. To be noted: ATCC 13883. In a few lines: as §1
The test system of data set [4] is E. coli ATCC 25922. To be noted: ATCC 25922. In a few lines:
as §1

The test system of data set [5] is A. baumannii GN_093 PmxR. To be noted: GN 093 PmxR. In a few lines: as §1
Data set [6] has as its system P. aeruginosa GN_105, PmxR. Conditions: GN 105, PmxR. In short, it runs like this:
as §1

In data set [7] the test system is S. aureus ATCC 25923, MSSA. Conditions: ATCC 25923. In a few lines:
as §1

In data set [8] the test system is P. aeruginosa ATCC 27853. To be noted: ATCC 27853. In short, it runs like this:
as §1

The test system of data set [9] is A. baumannii ATCC 19606. To be noted: ATCC 19606. In short, it runs like this: as §1
Data set [10] deals with K. pneumoniae GN_106, PmxR. Conditions: GN 106, PmxR. In short, it runs like this: as §1
For data set [11], the system named is K. pneumoniae ATCC BAA-2146, NDM-1 pos. Conditions: ATCC BAA-2146. In short, it runs like this: as §1
In data set [12] the test system is K. pneumoniae ATCC 700603, MDR. To be noted: ATCC 700603. In short, it runs like this:
as §1

Data set [13] in a line: in vitro. To be noted: for CC50 at 24 h: human. In short, it runs like this: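 Fluorescence read-out (excitation 560, emission 590) after a 2 h, 37 °C incubation with 5 μM resazurin, following 24 h compound treatment of cells plated at 4000 per well. CC50 values come from fitting dose–response curves of growth inhibition.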

Values after ≈ are worked out from the molar mass of the structure shown. Positions of bridges follow the written chain, without caps; N, C: chain ends. Non-standard residues stand in square brackets, D forms with d. Residues, ends and D or L forms follow the SMILES beside them. *: point of attachment. Decanoyl(3R-OH) = CCCCCCC[C@@H](O)CC(=O)*; dBip = N[C@H](Cc1ccc(-c2ccccc2)cc1)C(=O)O; Igl = N[C@H](C(=O)O)C1Cc2ccccc2C1; Tle = CC(C)(C)[C@H](N)C(=O)O; Octanoyl = CCCCCCCC(=O)*; dDap = NC[C@@H](N)C(=O)O; Dab = NCC[C@H](N)C(=O)O

The text below walks through data of patent publication US11279733B2, “Peptide antibiotics” (priority 2017, dated 2022).

As for `CCCCCCCC(=O)N[C@H](CN)C(=O)N[C@H]1CCNC(=O)[C@H](Cc2c[nH]c3ccccc23)NC(=O)[C@H](CCN)NC(=O)[C@H](CCN)NC(=O)[C@H](CC(C)C)NC(=O)[C@@H](Cc2ccccc2)NC(=O)[C@H](CCN)NC1=O` [compound 8887, nC7CO-D-Dap-cyc[L-Dab-L-Dab-D-Phe-L-Leu-L-Dab-L-Dab-L-Trp]] (Octanoyl-[dDap][Dab][Dab][dF]L[Dab][Dab]W; lactam 2-C), the “MIC P. aeruginosa GN_043, PmxR” value in [1] amounted to 2 µg/mL (≈ 1.89 µM). In data set [2], the “MIC K. pneumoniae GN_102 PmxR” value amounted to 32 µg/mL (≈ 30.2 µM). Further, the “MIC K. pneumoniae ATCC 13883” value in data set [3] came to 16 µg/mL (≈ 15.1 µM). Further, in data set [4], the “MIC E. coli ATCC 25922” value came out at 8 µg/mL (≈ 7.55 µM). For the same compound, the “MIC A. baumannii GN_093 PmxR” value in [5] was greater than 32 µg/mL. Further, the “MIC P. aeruginosa GN_105, PmxR” value in data set [6] worked out at 8 µg/mL (≈ 7.55 µM). For the same compound, the “MIC S. aureus ATCC 25923, MSSA” value in data set [7] came to 8 µg/mL (≈ 7.55 µM). Also, in data set [8], the “MIC P. aeruginosa ATCC 27853” value was found to be 2 µg/mL (≈ 1.89 µM). For the same compound, in [9], the “MIC A. baumannii ATCC 19606” value amounted to 32 µg/mL (≈ 30.2 µM). Besides, the “MIC K. pneumoniae GN_106, PmxR” value in [10] came out at 16 µg/mL (≈ 15.1 µM). Besides, the “MIC K. pneumoniae ATCC BAA-2146, NDM-1 pos” value in data set [11] came out at 8 µg/mL (≈ 7.55 µM). The “MIC K. pneumoniae ATCC 700603, MDR” value in data set [12] came out at 4 µg/mL (≈ 3.78 µM). Also, the CC50 at 24 h in data set [13] came out at 190 µM.

`CCCCCCC[C@@H](O)CC(=O)N[C@H](CN)C(=O)N[C@H]1CCNC(=O)[C@H](Cc2c[nH]c3ccccc23)NC(=O)[C@H](CCCNC(=N)N)NC(=O)[C@H](CCCCN)NC(=O)[C@H](C2Cc3ccccc3C2)NC(=O)[C@@H](Cc2ccccc2)NC(=O)[C@H](CCN)NC1=O` [compound 8888, 3(R)OH-nC9CO-D-Dap-cyc[L-Dab-L-Dab-D-Phe-L-indanylgly-L-Lys-L-Arg-L-Trp]] ({Decanoyl(3R-OH)}-[dDap][Dab][Dab][dF][Igl]KRW; lactam 2-C): in [1], the “MIC P. aeruginosa GN_043, PmxR” value is 4 µg/mL (≈ 3.21 µM). The “MIC K. pneumoniae GN_102 PmxR” value in data set [2] is 4 µg/mL (≈ 3.21 µM). Moreover, the “MIC K. pneumoniae ATCC 13883” value in data set [3] stood at 4 µg/mL (≈ 3.21 µM). In addition, the “MIC E. coli ATCC 25922” value in [4] is 2 µg/mL (≈ 1.6 µM). In addition, in [5], the “MIC A. baumannii GN_093 PmxR” value worked out at 8 µg/mL (≈ 6.41 µM). Further, the “MIC P. aeruginosa GN_105, PmxR” value in data set [6] is 2 µg/mL (≈ 1.6 µM). The “MIC S. aureus ATCC 25923, MSSA” value in data set [7] stood at 2 µg/mL (≈ 1.6 µM). Besides, the “MIC P. aeruginosa ATCC 27853” value in data set [8] is 4 µg/mL (≈ 3.21 µM). The “MIC A. baumannii ATCC 19606” value in data set [9] was found to be 4 µg/mL (≈ 3.21 µM). The “MIC K. pneumoniae GN_106, PmxR” value in [10] worked out at 4 µg/mL (≈ 3.21 µM). Moreover, in data set [11], the “MIC K. pneumoniae ATCC BAA-2146, NDM-1 pos” value was determined as 2 µg/mL (≈ 1.6 µM). For the same compound, the “MIC K. pneumoniae ATCC 700603, MDR” value in data set [12] came out at 2 µg/mL (≈ 1.6 µM). Moreover, in data set [13], the CC50 came to 67 µM.

As to `CCCCCCC[C@@H](O)CC(=O)N[C@H](CN)C(=O)N[C@H]1CCNC(=O)[C@H](Cc2c[nH]c3ccccc23)NC(=O)[C@H](CCCCN)NC(=O)[C@H](CCCNC(=N)N)NC(=O)[C@H](C2Cc3ccccc3C2)NC(=O)[C@@H](Cc2ccccc2)NC(=O)[C@H](CCN)NC1=O` [compound 8890, 3(R)OH-nC9CO-D-Dap-cyc[L-Dab-L-Dab-D-Phe-L-indanylgly-L-Arg-L-Lys-L-Trp]] ({Decanoyl(3R-OH)}-[dDap][Dab][Dab][dF][Igl]RKW; lactam 2-C), in data set [1], the “MIC P. aeruginosa GN_043, PmxR” value was determined as 4 µg/mL (≈ 3.21 µM). In [2], the “MIC K. pneumoniae GN_102 PmxR” value is 4 µg/mL (≈ 3.21 µM). Also, the “MIC K. pneumoniae ATCC 13883” value in [3] was 2 µg/mL (≈ 1.6 µM). The “MIC E. coli ATCC 25922” value in [4] came to 2 µg/mL (≈ 1.6 µM). Further, in [5], the “MIC A. baumannii GN_093 PmxR” value stood at 8 µg/mL (≈ 6.41 µM). In addition, the “MIC P. aeruginosa GN_105, PmxR” value in data set [6] was found to be 2 µg/mL (≈ 1.6 µM). For the same compound, in data set [7], the “MIC S. aureus ATCC 25923, MSSA” value was determined as 2 µg/mL (≈ 1.6 µM). For the same compound, in data set [8], the “MIC P. aeruginosa ATCC 27853” value is 4 µg/mL (≈ 3.21 µM). Also, the “MIC A. baumannii ATCC 19606” value in data set [9] came out at 8 µg/mL (≈ 6.41 µM). In addition, the “MIC K. pneumoniae GN_106, PmxR” value in data set [10] was 4 µg/mL (≈ 3.21 µM). Further, in [11], the “MIC K. pneumoniae ATCC BAA-2146, NDM-1 pos” value was found to be 4 µg/mL (≈ 3.21 µM). Also, the “MIC K. pneumoniae ATCC 700603, MDR” value in data set [12] was found to be 2 µg/mL (≈ 1.6 µM). In [13], this compound yielded a CC50 at 24 h of 67 µM.

`CCCCCCC[C@@H](O)CC(=O)N[C@H](CN)C(=O)N[C@H]1CCNC(=O)[C@H](Cc2c[nH]c3ccccc23)NC(=O)[C@H](CCCNC(=N)N)NC(=O)[C@H](CCCCN)NC(=O)[C@H](C(C)(C)C)NC(=O)[C@@H](Cc2ccc(-c3ccccc3)cc2)NC(=O)[C@H](CCN)NC1=O` [compound 8892, 3(R)OH-nC9CO-D-Dap-cyc[L-Dab-L-Dab-D-Bip-L-tert-Leu-L-Lys-L-Arg-L-Trp]] ({Decanoyl(3R-OH)}-[dDap][Dab][Dab][dBip][Tle]KRW; lactam 2-C): in data set [1], the “MIC P. aeruginosa GN_043, PmxR” value turned out to be 4 µg/mL (≈ 3.17 µM). The “MIC K. pneumoniae GN_102 PmxR” value in data set [2] was 8 µg/mL (≈ 6.33 µM). In [3], the “MIC K. pneumoniae ATCC 13883” value came out at 8 µg/mL (≈ 6.33 µM). In [4], the “MIC E. coli ATCC 25922” value came out at 4 µg/mL (≈ 3.17 µM). Also, the “MIC A. baumannii GN_093 PmxR” value in [5] is 8 µg/mL (≈ 6.33 µM). Further, the “MIC P. aeruginosa GN_105, PmxR” value in [6] was found to be 4 µg/mL (≈ 3.17 µM). For the same compound, the “MIC S. aureus ATCC 25923, MSSA” value in data set [7] turned out to be 4 µg/mL (≈ 3.17 µM). In addition, the “MIC P. aeruginosa ATCC 27853” value in data set [8] was 8 µg/mL (≈ 6.33 µM). For the same compound, the “MIC A. baumannii ATCC 19606” value in [9] is 8 µg/mL (≈ 6.33 µM). The “MIC K. pneumoniae GN_106, PmxR” value in data set [10] turned out to be 8 µg/mL (≈ 6.33 µM). In addition, the “MIC K. pneumoniae ATCC BAA-2146, NDM-1 pos” value in [11] came to 4 µg/mL (≈ 3.17 µM). Also, in data set [12], the “MIC K. pneumoniae ATCC 700603, MDR” value came out at 4 µg/mL (≈ 3.17 µM). The CC50 at 24 h in data set [13] was greater than 300 µM.
